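Five concentrations, 48 hours, 96-well plates. At the GI50, growth is halved. At the TGI there is no net growth.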
How the values were obtained:
Assay in all cases: NCI anticancer screen, dose series, 48 h
CCRF-CEM leukemia = test system: CCRF-CEM leukemia
RXF 393 renal = test system: RXF 393 renal
U251 CNS = test system: U251 CNS
HCC-2998 colon = test system: HCC-2998 colon
OVCAR-5 ovarian = test system: OVCAR-5 ovarian
HOP-62 NSCLC = test system: HOP-62 NSCLC
OVCAR-4 ovarian = test system: OVCAR-4 ovarian
UACC-62 melanoma = test system: UACC-62 melanoma
A549 NSCLC = test system: A549 NSCLC
HL-60(TB) leukemia = test system: HL-60(TB) leukemia

Row | SMILES | GI50 (CCRF-CEM leukemia) [µM] | TGI (CCRF-CEM leukemia) [µM] | GI50 (RXF 393 renal) [µM] | TGI (RXF 393 renal) [µM] | GI50 (U251 CNS) [µM] | TGI (U251 CNS) [µM] | GI50 (HCC-2998 colon) [µM] | TGI (HCC-2998 colon) [µM] | GI50 (OVCAR-5 ovarian) [µM] | TGI (OVCAR-5 ovarian) [µM] | GI50 (HOP-62 NSCLC) [µM] | TGI (HOP-62 NSCLC) [µM] | GI50 (OVCAR-4 ovarian) [µM] | TGI (OVCAR-4 ovarian) [µM] | GI50 (UACC-62 melanoma) [µM] | TGI (UACC-62 melanoma) [µM] | GI50 (A549 NSCLC) [µM] | TGI (A549 NSCLC) [µM] | TGI (HL-60(TB) leukemia) [µM]
1 | O=C(c1ccccc1)c1c(NCC(O)CN2CCCC2)n(Cc2ccccc2)c(=O)n(Cc2ccccc2)c1=O (stereo not drawn) | 24.3 | 63.6 | 21.6 | 53.3 | 16.1 | 29.6 | 20.5 | 36.5 | 29.7 | 82 | 21.7 | 49.5 | 23.9 | 57.1 | 17.4 | 33.2 | 32.3 | > 100 | 
2 | O=P([O-])(O)OP(=O)([O-])O.[NH-][C@H]1CCCC[C@@H]1[NH-].[OH-].[OH-].[Pt+4] | > 100 | > 100 | 17.6 | 36.1 | 17.2 | 33.8 | 28.8 | 85.2 | 26.3 | 63.2 | 19.3 | 35.4 | 71.2 | > 100 | 22 | 92.2 |  |  | 
3 | COc1ccc(/C(=N/NC(N)=O)C2(O)C(=O)Nc3ccc([N+](=O)[O-])cc32)cc1 (stereo not drawn) |  | 32.3 |  |  |  | > 10 |  | > 100 |  | 81.2 |  | > 100 |  | 27.1 |  | 43.6 |  | > 100 | 
4 | COc1cc2c(/C=N\N=C(N)N)c(Cl)[nH]c2cc1C | 3.89 | 17.5 | 14.8 | 30.1 | 4.62 | 17.7 | 2.5 | 5.67 | 15.2 | 29 |  |  |  |  | 12 | 24.6 | 18.6 | 37.3 | 
5 | O=C(O)c1ccccc1Cc1ccco1 |  |  |  | > 100 |  | > 100 |  | > 100 |  | > 100 |  | > 100 |  | > 100 |  | > 100 |  | > 100 | 
6 | O=C(/C=C/c1ccc(B(O)O)cc1)/C=C/c1ccc(B(O)O)cc1 | 2.86 | 9.58 | 1.7 | 3.45 | 2.82 | 10.4 | 1.95 | 3.61 | 4.4 | 20.3 | 10.3 | 22 | 11.4 | 24 | 1.73 | 4.41 | 3.55 | 15.2 | 
7 | COc1cc(/C(Cl)=C/C=C/C(=O)c2c(C)[n+]([O-])c3ccc(Cl)cc3[n+]2[O-])cc(OC)c1OC | 1.62 | > 50 | 9.15 | 28 | 2.57 | 10.5 | 16.7 | > 50 | 13 | 33.2 | 7.68 | 24.4 | 5.07 | > 50 | 3.42 | 27.1 |  |  | 
8 | Cc1cccc(C(=O)c2cccc3ccccc23)c1C(=O)O |  | > 100 |  | > 100 |  | > 100 |  |  |  | > 100 |  | > 100 |  | > 100 |  | > 100 |  | > 100 | 
9 | COc1cccc([C@H]2CC(=O)c3cc4c(cc3N2)OCO4)c1 | 0.0586 | > 100 |  | 0.713 | 0.0491 | > 100 | 0.0283 | 0.115 | 13.7 |  | 2.56 | > 100 |  | > 100 | 0.0226 | 0.0965 | 0.125 | > 100 | 
10 | CCC1(C)NN=c2s/c(=C/c3ccc(OC)cc3)c(=O)n2N1 (stereo not drawn) |  | > 100 |  | > 100 |  | > 100 |  | > 100 |  | > 100 |  | > 100 |  | > 100 |  | > 100 |  | > 100 | 
11 | NS(=O)(=O)c1ccc(NC(=O)c2ccc(NC3=C(Cl)C(=O)N(Cc4ccccc4)C3=O)cc2)cc1 |  |  |  |  | 5.37 | 24.7 |  |  | 15.5 | 33.1 | 10.4 | 22.1 | 13.7 | > 100 |  |  | 29.1 | > 100 | 
12 | O=C(Nc1c(O)[nH]c(=S)[nH]c1=O)c1ccccn1 |  | > 100 |  |  |  | > 100 |  |  |  | > 100 |  | > 100 |  | > 100 |  | > 100 |  | > 100 | > 100
13 | CC(=O)OCC1OC(Nc2[nH]c(=O)n(C)c(=O)c2-c2csc(N)n2)C(OC(C)=O)C(OC(C)=O)C1OC(C)=O (stereo not drawn) |  | > 100 |  |  |  | > 100 |  |  |  | > 100 |  | > 100 |  | > 100 |  | > 100 |  | > 100 | > 100
14 | C=CCC1OC(C)(C)Oc2ccc(OCOCCOC)cc21 (stereo not drawn) |  |  |  | > 100 |  | > 100 |  | > 100 |  | > 100 |  | > 100 |  | > 100 |  | > 100 |  | > 100 | 
15 | COc1cc2c(cc1O)C=NCC2 |  | > 100 |  |  |  | > 100 |  |  |  | > 100 |  |  |  | > 100 |  | > 100 |  | > 100 | > 100
16 | O=[As](O)(O)c1ccc(NCc2ccccc2)cc1 |  |  |  | > 100 |  | > 100 |  |  |  | > 100 |  | > 100 |  | > 100 |  | > 100 |  | > 100 | 

— PubChem BioAssay (NCI)
